ChEMBL document CHEMBL6127085, “Design, synthesis and evaluation of novel LpxC inhibitors containing a hydrazone moiety as Gram-negative antibacterial agents” (Eur J Med Chem, 2024)
In brackets after ≈: the same amount, converted by molar mass.

Legend:
Escherichia coli = assay: Antibacterial activity against Escherichia coli ATCC25922 assessed as reduction in bacterial growth measured after 18 to 24 hrs by CLSI protocol based method; assay type: functional; conditions: time 18-24 hrs
Pseudomonas aeruginosa [1] = assay: Antibacterial activity against Pseudomonas aeruginosa ATCC27853 assessed as reduction in bacterial growth measured after 18 to 24 hrs by CLSI protocol based method; assay type: functional; conditions: time 18-24 hrs
Pseudomonas aeruginosa [2] = assay: Antibacterial activity against Pseudomonas aeruginosa clinical isolate PAE22-1 assessed as reduction in bacterial growth measured after 18 to 24 hrs by CLSI protocol based method; assay type: functional; conditions: time 18-24 hrs
Klebsiella pneumoniae [3] = assay: Antibacterial activity against Klebsiella pneumoniae ATCC700603 assessed as reduction in bacterial growth measured after 18 to 24 hrs by CLSI protocol based method; assay type: functional; conditions: time 18-24 hrs
Klebsiella pneumoniae [4] = assay: Antibacterial activity against Klebsiella pneumoniae clinical isolate KPN+22-1 assessed as reduction in bacterial growth measured after 18 to 24 hrs by CLSI protocol based method; assay type: functional; conditions: time 18-24 hrs
[5] = Metabolic stability in human liver microsomes assessed as half life at 1 uM preincubated for 5 mins followed by NADPH addition and measured after 5 to 60 mins by LC-MS analysis; assay type: ADME, Microsome; conditions: liver microsomes, time 10-65 min
[6] = Metabolic stability in rat liver microsomes assessed as half life at 1 uM preincubated for 5 mins followed by NADPH addition and measured after 5 to 60 mins by LC-MS analysis; assay type: ADME, Microsome; conditions: liver microsomes, time 10-65 min
[7] = Metabolic stability in mouse liver microsomes assessed as half life at 1 uM preincubated for 5 mins followed by NADPH addition and measured after 5 to 60 mins by LC-MS analysis; assay type: ADME, Microsome; conditions: liver microsomes, time 10-65 min
[8] = Metabolic stability in human liver microsomes assessed as intrinsic clearance at 1 uM preincubated for 5 mins followed by NADPH addition and measured after 5 to 60 mins by LC-MS analysis; assay type: ADME, Microsome; conditions: time 10-65 min, read-out: CLH
[9] = Metabolic stability in rat liver microsomes assessed as intrinsic clearance at 1 uM preincubated for 5 mins followed by NADPH addition and measured after 5 to 60 mins by LC-MS analysis; assay type: ADME, Microsome; conditions: liver microsomes, time 10-65 min, read-out: CLH
[10] = Metabolic stability in mouse liver microsomes assessed as intrinsic clearance at 1 uM preincubated for 5 mins followed by NADPH addition and measured after 5 to 60 mins by LC-MS analysis; assay type: ADME, Microsome; conditions: liver microsomes, time 10-65 min, read-out: CLH
[11] = Intrinsic clearance in human; assay type: ADME; conditions: read-out: CLH
[12] = Intrinsic clearance in rat; assay type: ADME; conditions: read-out: CLH
[13] = Intrinsic clearance in mouse; assay type: ADME, organism-based; conditions: read-out: CLH

Row | SMILES | MIC (Escherichia coli) | MIC (Pseudomonas aeruginosa [1]) | MIC (Pseudomonas aeruginosa [2]) | MIC (Klebsiella pneumoniae [3]) | MIC (Klebsiella pneumoniae [4]) | half-life at 1 µM [5] | half-life at 1 µM [6] | half-life at 1 µM [7] | microsomal CLint at 1 µM [8] | microsomal CLint at 1 µM [9] | microsomal CLint at 1 µM [10] | CLint scaled [11] | CLint scaled [12] | CLint scaled [13]
1 | CCC(=O)N1CCN(/N=C/c2ccc(C#Cc3ccc(C(=O)N[C@H](C(=O)NO)[C@@H](C)O)cc3)cc2)CC1 | 0.03 mg/L (≈ 0.0593 µM) | 4 mg/L (≈ 7.91 µM) | 4 mg/L (≈ 7.91 µM) | 16 mg/L (≈ 31.6 µM) | 2 mg/L (≈ 3.96 µM) | 5.15 h | 3.5 h | 3.37 h | 4.51 µL/min/mg | 6.7 µL/min/mg | 7.23 µL/min/mg | 0.256 L/h/kg | 0.726 L/h/kg | 1.71 L/h/kg
2 | C[C@@H](O)[C@H](NC(=O)c1ccc(C#Cc2ccc(/C=N/N3CCN(S(C)(=O)=O)CC3)cc2)cc1)C(=O)NO | 0.5 mg/L (≈ 0.948 µM) | > 64 mg/L | > 64 mg/L | > 64 mg/L | > 64 mg/L | – | – | – | – | – | – | – | – | –
3 | C[C@@H](O)[C@H](NC(=O)c1ccc(C#Cc2ccc(/C=N/N3CCN(C(=O)OC(C)(C)C)CC3)cc2)cc1)C(=O)NO | 1 mg/L (≈ 1.82 µM) | > 64 mg/L | 16 mg/L (≈ 29.1 µM) | > 64 mg/L | 8 mg/L (≈ 14.6 µM) | – | – | – | – | – | – | – | – | –
4 | C[C@@H](O)[C@H](NC(=O)c1ccc(C#Cc2ccc(/C=N/N3CCN(C(=O)N(C)C)CC3)cc2)cc1)C(=O)NO | 0.5 mg/L (≈ 0.96 µM) | 8 mg/L (≈ 15.4 µM) | 4 mg/L (≈ 7.68 µM) | 16 mg/L (≈ 30.7 µM) | 2 mg/L (≈ 3.84 µM) | – | – | – | – | – | – | – | – | –
5 | O=C(NO)C1CN(c2ccc(C#Cc3ccc(/C=N/N4CCCC4)cc3)cc2)C(=O)O1 (stereo not drawn) | > 64 mg/L | – | > 64 mg/L | – | > 64 mg/L | – | – | – | – | – | – | – | – | –
6 | C[C@@H](O)[C@H](NC(=O)c1ccc(C#Cc2ccc(/C=N/N3CCS(=O)(=O)CC3)cc2)cc1)C(=O)NO | 1 mg/L (≈ 2.01 µM) | 4 mg/L (≈ 8.02 µM) | 4 mg/L (≈ 8.02 µM) | 16 mg/L (≈ 32.1 µM) | 4 mg/L (≈ 8.02 µM) | – | – | – | – | – | – | – | – | –
7 | C[C@@H](O)[C@H](NC(=O)c1ccc(C#Cc2ccc(/C=N/N3CCN(C4CCCC4)CC3)cc2)cc1)C(=O)NO | 2 mg/L (≈ 3.86 µM) | > 64 mg/L | 32 mg/L (≈ 61.8 µM) | > 64 mg/L | 32 mg/L (≈ 61.8 µM) | – | – | – | – | – | – | – | – | –
8 | C[C@@H](O)[C@H](NC(=O)c1ccc(C#Cc2ccc(/C=N/N3CCN(C)CC3)cc2)cc1)C(=O)NO | 1 mg/L (≈ 2.16 µM) | 2 mg/L (≈ 4.31 µM) | 2 mg/L (≈ 4.31 µM) | 8 mg/L (≈ 17.3 µM) | 2 mg/L (≈ 4.31 µM) | – | – | – | – | – | – | – | – | –
9 | C[C@@H](O)[C@H](NC(=O)c1ccc(C#Cc2ccc(/C=N/N3CCCCC3)cc2)cc1)C(=O)NO | 0.25 mg/L (≈ 0.557 µM) | 32 mg/L (≈ 71.3 µM) | 4 mg/L (≈ 8.92 µM) | 32 mg/L (≈ 71.3 µM) | 1 mg/L (≈ 2.23 µM) | – | – | – | – | – | – | – | – | –
10 | C[C@@H](O)[C@H](NC(=O)c1ccc(C#Cc2ccc(/C=N/N3CCCC3)nc2)cc1)C(=O)NO | 2 mg/L (≈ 4.59 µM) | > 64 mg/L | 4 mg/L (≈ 9.19 µM) | – | > 64 mg/L | – | – | – | – | – | – | – | – | –
11 | C[C@@H](O)[C@H](NC(=O)c1ccc(C#Cc2ccc(/C=N/N3CCN(C(=O)C(C)(C)C)CC3)cc2)cc1)C(=O)NO | 0.25 mg/L (≈ 0.468 µM) | > 32 mg/L | > 32 mg/L | > 32 mg/L | 8 mg/L (≈ 15 µM) | 1.37 h | 1.48 h | 2.53 h | 19.4 µL/min/mg | 15.6 µL/min/mg | 9.29 µL/min/mg | 1.1 L/h/kg | 1.69 L/h/kg | 2.2 L/h/kg
12 | CCOC(=O)N1CCN(/N=C/c2ccc(C#Cc3ccc(C(=O)N[C@H](C(=O)NO)[C@@H](C)O)cc3)cn2)CC1 | 2 mg/L (≈ 3.83 µM) | 16 mg/L (≈ 30.6 µM) | 8 mg/L (≈ 15.3 µM) | > 64 mg/L | 32 mg/L (≈ 61.2 µM) | – | – | – | – | – | – | – | – | –
13 | O=C(NO)C1CN(c2ccc(C#Cc3ccc(/C=N/N4CCOCC4)cc3)cc2)C(=O)O1 (stereo not drawn) | 1 mg/L (≈ 2.3 µM) | – | > 64 mg/L | – | 8 mg/L (≈ 18.4 µM) | – | – | – | – | – | – | – | – | –
